According to PubChem BioAssay AID330 (DTP/NCI, 2004):
Values joined by “and” are separate entries in the source; they are usually repeats but may differ in a detail not shown here. Equal entries are not always repeated. Inconclusive results and toxic doses are left out. Rule for the calls: active = survival T/C of 150% or more; inactive = T/C below 125% in these data.

Test system: P388 leukemia ip, CD2F1 mice, survival T/C
Experiment: NCI In Vivo Anticancer Drug Screen. Data for tumor model P388 Leukemia (intraperitoneal) in CD2F1 (CDF1) mice
Conditions: endpoint: median survival time, higher = longer survival
Summary of the method: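 Mice carrying the transplanted tumor received test compound or vehicle. Survival was recorded in each group, and the value is the treated-group measurement divided by that of the vehicle-treated control group.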

[1] = dose: 100.0 mg/kg/injection, schedule: Q04DX002 (ip), vehicle: saline with Tween-80
[2] = dose: 3.12 mg/kg/injection, schedule: Q01DX009 (ip), vehicle: saline
[3] = dose: 6.25 mg/kg/injection, schedule: Q01DX009 (ip), vehicle: saline
[4] = dose: 12.5 mg/kg/injection, schedule: Q01DX009 (ip), vehicle: saline
[5] = dose: 25.0 mg/kg/injection, schedule: Q01DX009 (ip), vehicle: saline
[6] = dose: 100.0 mg/kg/injection, schedule: Q04DX003 (ip), vehicle: saline with Tween-80
[7] = dose: 200.0 mg/kg/injection, schedule: Q04DX003 (ip), vehicle: saline with Tween-80
[8] = dose: 400.0 mg/kg/injection, schedule: Q04DX003 (ip), vehicle: saline with Tween-80
[9] = dose: 60.0 mg/kg/injection, schedule: Q01DX005 (ip), vehicle: Klucel (hydroxypropylcellulose) (HPC)
[10] = dose: 120.0 mg/kg/injection, schedule: Q01DX005 (ip), vehicle: Klucel (hydroxypropylcellulose) (HPC)
[11] = dose: 240.0 mg/kg/injection, schedule: Q01DX005 (ip), vehicle: Klucel (hydroxypropylcellulose) (HPC)
[12] = dose: 50.0 mg/kg/injection, schedule: Q01DX005 (ip), vehicle: saline with Tween-80
[13] = dose: 100.0 mg/kg/injection, schedule: Q01DX005 (ip), vehicle: saline with Tween-80
[14] = dose: 200.0 mg/kg/injection, schedule: Q01DX005 (ip), vehicle: saline with Tween-80
[15] = dose: 12.5 mg/kg/injection, schedule: Q01DX009 (ip), vehicle: saline with Tween-80
[16] = dose: 25.0 mg/kg/injection, schedule: Q01DX009 (ip), vehicle: saline with Tween-80
[17] = dose: 50.0 mg/kg/injection, schedule: Q01DX009 (ip), vehicle: saline with Tween-80

Measured: T/C

O=C(O)c1nn(-c2ccccc2)c2c1CS(=O)(=O)c1ccccc1-2
inactive: [1] 100 % of control | dose: 200.0 mg/kg/injection, schedule: Q04DX002 (ip), vehicle: saline with Tween-80 106 % of control | dose: 400.0 mg/kg/injection, schedule: Q04DX002 (ip), vehicle: saline with Tween-80 104 % of control

O=C1C(C(=Nc2ccccc2Cl)c2ccccc2)=C(O)c2ccccc21
inactive: dose: 25.0 mg/kg/injection, schedule: Q04DX002 (ip), vehicle: saline with Tween-80 99 % of control | dose: 50.0 mg/kg/injection, schedule: Q04DX002 (ip), vehicle: saline with Tween-80 92 % of control | [1] 93 % of control

C=C(OC)C(Nc1cc(OC)c(OC)cc1C(=O)OC1CC(O[C@@H]2C(=O)C(NC(=O)OC)=C3/C(=C\CSSSC)[C@]2(O)C#C/C=C\C#C[C@@H]3OC2OC(C)C(NOC3CC(O)C(SC)C(C)O3)C(O)C2OC2CC(OC)C(NCCC)CO2)OC(C)C1O)OC (some centres undefined)
inactive: dose: 2.5 micrograms/kg/injection, schedule: Q01DX005 (ip), vehicle: saline + alcohol 88 % of control | dose: 2.5 nanograms/kg/injection, schedule: Q01DX005 (ip), vehicle: saline + alcohol 120 % of control | dose: 5.0 nanograms/kg/injection, schedule: Q01DX005 (ip), vehicle: saline + alcohol 118 % of control | dose: 5.12 micrograms/kg/injection, schedule: Q01DX005 (ip), vehicle: alcohol 115 % of control | dose: 10.0 nanograms/kg/injection, schedule: Q01DX005 (ip), vehicle: saline + alcohol 123 % of control | dose: 1280.0 nanograms/kg/injection, schedule: Q01DX005 (ip), vehicle: saline + alcohol 95 % of control
active: dose: 1.28 micrograms/kg/injection, schedule: Q01DX005 (ip), vehicle: alcohol 163 % of control | dose: 2.56 micrograms/kg/injection, schedule: Q01DX005 (ip), vehicle: alcohol 155 % of control and 177 % of control | dose: 320.0 nanograms/kg/injection, schedule: Q01DX005 (ip), vehicle: saline + alcohol 164 % of control | dose: 640.0 nanograms/kg/injection, schedule: Q01DX005 (ip), vehicle: saline + alcohol 174 % of control

COc1cccc(C(=O)C(CN(C)C)CN(C)C)c1
inactive: [2] 100 % of control and 105 % of control | dose: 3.13 mg/kg/injection, schedule: Q01DX009 (ip), vehicle: saline 106 % of control | [3] 103 % of control and 115 % of control and 97 % of control | [4] 108 % of control and 112 % of control and 123 % of control | [5] 103 % of control and 123 % of control

CCCC(Cc1ccccc1)C(=O)O (centres undefined)
inactive: dose: 100.0 mg/kg/injection, schedule: Q01DX001 (ip), vehicle: saline with Tween-80 123 % of control | dose: 200.0 mg/kg/injection, schedule: Q01DX001 (ip), vehicle: saline with Tween-80 108 % of control | dose: 400.0 mg/kg/injection, schedule: Q01DX001 (ip), vehicle: saline with Tween-80 124 % of control

C=C1C[C@@H](O)[C@H](O)[C@@]2(C)C[C@@H]3OC(=O)C(=C)[C@@H]3C[C@H]12
inactive: [2] 103 % of control | [3] 104 % of control and 119 % of control | [4] 104 % of control and 113 % of control | [5] 122 % of control

Clc1c2c(c(Cl)c3c1=Nc1ccc4ccccc4c1S3)=Nc1ccc3ccccc3c1S2
inactive: [6] 107 % of control | [7] 113 % of control | [8] 115 % of control

COc1ccc(C(=O)CCC2(C)OCCO2)cc1OC
inactive: [9] 101 % of control | [10] 108 % of control | [11] 106 % of control

CC1CCC2(C)CCC3(C)C4=CCC5C(C)(C)C(O)CCC5(C)C4CCC3(C)C2C1C (centres undefined)
inactive: dose: 200.0 mg/kg/injection, schedule: Q04DX003 (ip), vehicle: other 95 % of control | dose: 400.0 mg/kg/injection, schedule: Q04DX003 (ip), vehicle: other 100 % of control

Clc1ccc(-c2noc(CN3CCOCC3)n2)cc1
inactive: dose: 50.0 mg/kg/injection, schedule: Q01DX009 (ip), vehicle: saline 102 % of control | dose: 100.0 mg/kg/injection, schedule: Q01DX009 (ip), vehicle: saline 105 % of control | dose: 200.0 mg/kg/injection, schedule: Q01DX009 (ip), vehicle: saline 109 % of control

CC(C)(C)OC(=O)NC(COCc1ccccc1)C(=O)O (centres undefined)
inactive: [12] 103 % of control | [13] 98 % of control | [14] 97 % of control

C=CCc1ccccc1NC(C)C(=O)OCC (centres undefined)
inactive: [12] 107 % of control | [13] 107 % of control | [14] 107 % of control

N/C(CC(=O)Nc1cc(C(F)(F)F)ccc1Cl)=N\O
inactive: dose: 60.0 mg/kg/injection, schedule: Q01DX005 (ip), vehicle: saline with Tween-80 108 % of control | dose: 120.0 mg/kg/injection, schedule: Q01DX005 (ip), vehicle: saline with Tween-80 100 % of control | dose: 240.0 mg/kg/injection, schedule: Q01DX005 (ip), vehicle: saline with Tween-80 108 % of control

CC(C)c1ccc(/C=N\NC(=S)N/N=C\c2ccc(C(C)C)cc2)cc1
inactive: dose: 6.25 mg/kg/injection, schedule: Q01DX009 (ip), vehicle: Klucel (hydroxypropylcellulose) (HPC) 96 % of control | dose: 12.5 mg/kg/injection, schedule: Q01DX009 (ip), vehicle: Klucel (hydroxypropylcellulose) (HPC) 86 % of control

COc1ccc(NC(C)=NC(C)C)cc1
inactive: [15] 101 % of control and 88 % of control | [16] 92 % of control | dose: 50.0 mg/kg/injection, schedule: Q01DX009 (ip), vehicle: saline + Tween-80 + alcohol 98 % of control | [17] 100 % of control and 101 % of control

CCCCCCCCCCCCCCCCCC(=O)NC(Cc1ccc(N(CCCl)CCCl)cc1)C(=O)O (centres undefined)
active: dose: 1.88 mg/kg/injection, schedule: Q01DX009 (ip), vehicle: saline 159 % of control | dose: 3.75 mg/kg/injection, schedule: Q01DX009 (ip), vehicle: saline 172 % of control | dose: 3.75 mg/kg/injection, schedule: Q03HX008 (ip), vehicle: saline 155 % of control | dose: 7.5 mg/kg/injection, schedule: Q01DX009 (ip), vehicle: saline 236 % of control | dose: 7.5 mg/kg/injection, schedule: Q03HX008 (ip), vehicle: saline 190 % of control | dose: 15.0 mg/kg/injection, schedule: Q01DX009 (ip), vehicle: saline 277 % of control | dose: 15.0 mg/kg/injection, schedule: Q03HX008 (ip), vehicle: saline 225 % of control

CCN(CC)CCSCCNc1cc(OC)cc2cccnc12
inactive: dose: 12.5 mg/kg/injection, schedule: Q01DX005 (ip), vehicle: saline 101 % of control | dose: 25.0 mg/kg/injection, schedule: Q01DX005 (ip), vehicle: saline 101 % of control | dose: 50.0 mg/kg/injection, schedule: Q01DX005 (ip), vehicle: saline 89 % of control and 97 % of control

CC(C)(C)C1=CC(C#N)N(Cc2ccccc2)CC1 (centres undefined)
inactive: [9] 110 % of control | [10] 108 % of control | [11] 109 % of control

C1CSC(CCC2SCCCS2)SC1
inactive: [17] 92 % of control | dose: 100.0 mg/kg/injection, schedule: Q01DX009 (ip), vehicle: saline with Tween-80 90 % of control | dose: 200.0 mg/kg/injection, schedule: Q01DX009 (ip), vehicle: saline with Tween-80 87 % of control

CCCCCCCCCCCCCCCC[N+](C)(C)CCNC(C)=O
inactive: [15] 100 % of control | [16] 102 % of control | [17] 90 % of control

CNc1nc(N)nc(Nc2ccc(I)cc2)c1N=O
inactive: [6] 109 % of control | [7] 109 % of control | [8] 109 % of control

CCCCCCCN(CCCCCCC)CC(O)c1c(OC)c2ccccc2c2ccccc12 (centres undefined)
inactive: [16] 89 % of control | [17] 88 % of control

c1ccc(N=c2nc(Nc3ccccc3)ss2)cc1
inactive: [12] 94 % of control | [13] 86 % of control | [14] 90 % of control

O=C1CCC(=O)N1SCc1cccc2ccccc12
inactive: dose: 50.0 mg/kg/injection, schedule: Q01DX009 (ip), vehicle: Klucel (hydroxypropylcellulose) (HPC) 115 % of control | dose: 100.0 mg/kg/injection, schedule: Q01DX009 (ip), vehicle: Klucel (hydroxypropylcellulose) (HPC) 93 % of control | dose: 200.0 mg/kg/injection, schedule: Q01DX009 (ip), vehicle: Klucel (hydroxypropylcellulose) (HPC) 102 % of control
